Test results reported in ChEMBL document CHEMBL5329194, “Design, Synthesis, and Evaluation of 18F-Labeling CYP1B1 PET Tracer Based on 2-Phenylquinazolin” (Bioorg Med Chem Lett, 2023).

Experiments:
Cytochrome P450 1A1 = molecular target: T1, Cytochrome P450 1A1 (Homo sapiens, UniProt P04798); experiment: Inhibition of CYP1A1 (unknown origin); format: ADME
T1 sequence (P04798 whole entry): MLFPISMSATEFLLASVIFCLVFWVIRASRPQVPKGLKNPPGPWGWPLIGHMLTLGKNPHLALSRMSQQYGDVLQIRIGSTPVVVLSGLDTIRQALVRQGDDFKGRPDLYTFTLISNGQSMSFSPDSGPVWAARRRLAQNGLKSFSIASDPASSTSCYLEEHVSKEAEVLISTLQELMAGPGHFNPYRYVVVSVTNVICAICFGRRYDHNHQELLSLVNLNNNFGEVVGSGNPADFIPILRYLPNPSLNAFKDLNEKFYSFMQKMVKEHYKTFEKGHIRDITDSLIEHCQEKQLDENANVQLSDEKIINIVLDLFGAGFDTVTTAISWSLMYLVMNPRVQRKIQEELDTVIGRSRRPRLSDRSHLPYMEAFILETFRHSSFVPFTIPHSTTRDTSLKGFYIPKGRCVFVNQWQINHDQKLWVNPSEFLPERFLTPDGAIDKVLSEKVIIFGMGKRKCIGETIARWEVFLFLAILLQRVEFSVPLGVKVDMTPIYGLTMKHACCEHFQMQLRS

Cytochrome P450 1A2 = molecular target: T2, Cytochrome P450 1A2 (Homo sapiens, UniProt P05177); experiment: Inhibition of CYP1A2 (unknown origin); format: ADME
T2 sequence (P05177 whole entry): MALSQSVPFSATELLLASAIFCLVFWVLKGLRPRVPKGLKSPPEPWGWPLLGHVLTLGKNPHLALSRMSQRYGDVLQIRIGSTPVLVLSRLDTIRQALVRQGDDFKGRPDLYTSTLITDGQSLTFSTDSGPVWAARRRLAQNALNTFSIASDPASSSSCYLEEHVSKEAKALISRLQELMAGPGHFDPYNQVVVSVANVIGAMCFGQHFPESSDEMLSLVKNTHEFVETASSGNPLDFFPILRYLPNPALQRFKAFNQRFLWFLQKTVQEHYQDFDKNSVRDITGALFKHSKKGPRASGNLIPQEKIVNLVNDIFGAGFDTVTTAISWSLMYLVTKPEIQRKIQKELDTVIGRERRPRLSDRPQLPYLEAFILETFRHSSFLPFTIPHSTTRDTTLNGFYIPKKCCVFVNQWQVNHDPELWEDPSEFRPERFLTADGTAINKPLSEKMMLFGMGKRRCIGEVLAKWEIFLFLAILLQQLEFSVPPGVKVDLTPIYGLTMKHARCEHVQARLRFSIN

[1] = Drug uptake in human HCT-15 cells measured after 30 mins; format: ADME, cell-based; conditions: hct-15, 0.5 h
CYP1A2 versus CYP1B1 = experiment: Selectivity ratio of IC50 for inhibition of CYP1A2 (unknown origin) to IC50 for inhibition of CYP1B1 (unknown origin); format: ADME; conditions: human; read-out: Ratio IC50
CYP1A1 versus CYP1B1 = experiment: Selectivity ratio of IC50 for inhibition of CYP1A1 (unknown origin) to IC50 for inhibition of CYP1B1 (unknown origin); format: ADME; conditions: human; read-out: Ratio IC50
Cytochrome P450 1B1 = molecular target: T3, Cytochrome P450 1B1 (Homo sapiens, UniProt Q16678); experiment: Inhibition of CYP1B1 (unknown origin) by EROD assay; format: ADME
T3 sequence (Q16678 whole entry): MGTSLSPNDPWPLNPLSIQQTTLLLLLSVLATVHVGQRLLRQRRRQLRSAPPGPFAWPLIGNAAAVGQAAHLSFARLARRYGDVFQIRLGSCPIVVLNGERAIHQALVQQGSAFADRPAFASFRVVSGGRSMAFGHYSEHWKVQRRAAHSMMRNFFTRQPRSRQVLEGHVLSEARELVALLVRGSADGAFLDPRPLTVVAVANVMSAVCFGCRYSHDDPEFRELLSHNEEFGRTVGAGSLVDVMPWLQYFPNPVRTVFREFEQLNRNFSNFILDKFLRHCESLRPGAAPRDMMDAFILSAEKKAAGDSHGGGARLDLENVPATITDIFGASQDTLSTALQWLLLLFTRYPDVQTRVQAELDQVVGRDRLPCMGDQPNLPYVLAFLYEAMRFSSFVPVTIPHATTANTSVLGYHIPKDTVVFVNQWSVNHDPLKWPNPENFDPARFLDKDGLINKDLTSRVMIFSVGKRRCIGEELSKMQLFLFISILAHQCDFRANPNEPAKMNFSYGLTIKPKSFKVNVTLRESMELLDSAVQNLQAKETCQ

[2] = Drug uptake in human MCF7 cells measured after 30 mins; format: ADME, cell-based; conditions: mcf7, 0.5 h

FCCOCCOCCOc1nc(-c2ccc(Br)cc2)nc2ccccc12
IC50 (Cytochrome P450 1A1): > 1000 nM | IC50 (Cytochrome P450 1A2): > 1000 nM | Drug uptake [1]: 25.61% | selectivity ratio (CYP1A2 versus CYP1B1): > 20.7 | selectivity ratio (CYP1A1 versus CYP1B1): > 20.7 | IC50 (Cytochrome P450 1B1): 48.2 nM | Drug uptake [2]: 21.56%
